Assay results published in ChEMBL document CHEMBL1909046, “DrugMatrix in vitro pharmacology data”.

Test system: not listed separately
Experiment: DRUGMATRIX: beta-Lactamase enzyme inhibition (substrate: Nitrocefin)
Parameters: species or system Bacillus cereus
Details: Not Active = under 50% inhibition at 10 µM
For `Cc1cc(O)cc(C)c1Cl` [CHLOROXYLENOL], the IC50 was “Not Active” and the Ki was “Not Active”. In the case of `CCCNC(=O)NS(=O)(=O)c1ccc(Cl)cc1` [CHLORPROPAMIDE], the IC50 is reported as “Not Active” and the Ki is reported as “Not Active”. For `NS(=O)(=O)c1cc(C2(O)NC(=O)c3ccccc32)ccc1Cl` (stereo not given) [CHLORTHALIDONE], the IC50 was “Not Active” and the Ki was “Not Active”. With `O=C(O)CC(O)(CC(=O)O)C(=O)O` [CITRIC ACID] the IC50 was “Not Active” and the Ki was “Not Active”. For `CC(C)NCC(O)c1ccccc1Cl` (stereo not given) [CLORPRENALINE], the IC50 was “Not Active” and the Ki was “Not Active”. With `CN1C[C@@H]2C[C@H]1CN2c1cc2c(cc1F)c(=O)c(C(=O)O)cn2C1CC1` [DANOFLOXACIN] the IC50 was “Not Active” and the Ki was “Not Active”.

Target: 5-hydroxytryptamine receptor 4 (Cavia porcellus, UniProt O70528); also: in other assays of this panel Not Active means under 50% inhibition at 10 µM
Sequence (O70528 whole entry): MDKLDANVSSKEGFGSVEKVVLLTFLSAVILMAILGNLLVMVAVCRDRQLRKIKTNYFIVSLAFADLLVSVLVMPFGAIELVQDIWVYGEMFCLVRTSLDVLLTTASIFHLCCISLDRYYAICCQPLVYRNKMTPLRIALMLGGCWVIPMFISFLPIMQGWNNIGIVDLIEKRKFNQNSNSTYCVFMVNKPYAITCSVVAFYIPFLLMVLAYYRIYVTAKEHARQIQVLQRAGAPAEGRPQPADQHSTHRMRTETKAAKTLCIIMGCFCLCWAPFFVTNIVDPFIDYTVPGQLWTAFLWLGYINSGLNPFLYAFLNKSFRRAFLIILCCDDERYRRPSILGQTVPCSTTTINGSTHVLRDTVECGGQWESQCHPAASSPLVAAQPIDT
Format: cell membranes, Dunkin-Hartley, Striatum, Membrane
Details: not given
In the case of `Cc1cc(O)cc(C)c1Cl` [CHLOROXYLENOL], the IC50 is reported as “Not Active”. With `CCCNC(=O)NS(=O)(=O)c1ccc(Cl)cc1` [CHLORPROPAMIDE] the IC50 was “Not Active”. With `NS(=O)(=O)c1cc(C2(O)NC(=O)c3ccccc32)ccc1Cl` (stereo not given) [CHLORTHALIDONE] the IC50 was “Not Active”. For `O=C(O)CC(O)(CC(=O)O)C(=O)O` [CITRIC ACID], the IC50 was “Not Active”. With `CC(C)NCC(O)c1ccccc1Cl` (stereo not given) [CLORPRENALINE] the IC50 was “Not Active”. In the case of `CN1C[C@@H]2C[C@H]1CN2c1cc2c(cc1F)c(=O)c(C(=O)O)cn2C1CC1` [DANOFLOXACIN], the IC50 is reported as “Not Active”.

Target: Cannabinoid receptor 1 (Homo sapiens, UniProt P21554); also: in other assays of this panel Not Active means under 50% inhibition at 10 µM
Sequence (P21554 whole entry): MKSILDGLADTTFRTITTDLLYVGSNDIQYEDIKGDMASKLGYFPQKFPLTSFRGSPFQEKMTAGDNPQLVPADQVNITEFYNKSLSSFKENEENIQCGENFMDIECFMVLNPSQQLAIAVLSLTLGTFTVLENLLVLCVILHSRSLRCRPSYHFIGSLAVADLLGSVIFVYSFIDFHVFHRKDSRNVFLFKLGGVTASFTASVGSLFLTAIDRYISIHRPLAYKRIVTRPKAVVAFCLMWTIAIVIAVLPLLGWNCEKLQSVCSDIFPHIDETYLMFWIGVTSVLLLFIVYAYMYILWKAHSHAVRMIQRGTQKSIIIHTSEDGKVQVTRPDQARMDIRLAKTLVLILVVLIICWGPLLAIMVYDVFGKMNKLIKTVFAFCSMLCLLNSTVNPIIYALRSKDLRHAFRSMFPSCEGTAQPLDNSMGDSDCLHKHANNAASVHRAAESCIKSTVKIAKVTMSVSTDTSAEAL
Format: cell membranes, Chem-1, Membrane
Details: chem-1
For `Cc1cc(O)cc(C)c1Cl` [CHLOROXYLENOL], the IC50 was “Not Active”. For `CCCNC(=O)NS(=O)(=O)c1ccc(Cl)cc1` [CHLORPROPAMIDE], the IC50 was “Not Active”. For `NS(=O)(=O)c1cc(C2(O)NC(=O)c3ccccc32)ccc1Cl` (stereo not given) [CHLORTHALIDONE], the IC50 was “Not Active”. With `O=C(O)CC(O)(CC(=O)O)C(=O)O` [CITRIC ACID] the IC50 was “Not Active”. With `CC(C)NCC(O)c1ccccc1Cl` (stereo not given) [CLORPRENALINE] the IC50 was “Not Active”. With `CN1C[C@@H]2C[C@H]1CN2c1cc2c(cc1F)c(=O)c(C(=O)O)cn2C1CC1` [DANOFLOXACIN] the IC50 was “Not Active”.

Target: T1, Endothelin-1 receptor (Homo sapiens, UniProt P25101); also: in other assays of this panel Not Active means under 50% inhibition at 10 µM
T1 sequence (P25101 whole entry): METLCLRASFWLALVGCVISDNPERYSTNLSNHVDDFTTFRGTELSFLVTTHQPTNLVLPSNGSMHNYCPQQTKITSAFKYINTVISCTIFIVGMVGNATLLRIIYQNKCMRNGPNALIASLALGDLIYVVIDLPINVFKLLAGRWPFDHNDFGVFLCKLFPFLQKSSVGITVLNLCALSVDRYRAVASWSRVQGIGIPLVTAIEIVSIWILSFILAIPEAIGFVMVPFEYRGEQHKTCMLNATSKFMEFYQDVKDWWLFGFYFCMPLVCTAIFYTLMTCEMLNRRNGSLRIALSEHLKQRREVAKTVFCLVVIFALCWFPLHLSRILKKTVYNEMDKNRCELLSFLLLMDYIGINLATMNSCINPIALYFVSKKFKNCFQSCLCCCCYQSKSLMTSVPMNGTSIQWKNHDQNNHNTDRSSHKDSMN
Format: cell membranes, Membrane
Details: cho-k1
For `Cc1cc(O)cc(C)c1Cl` [CHLOROXYLENOL], the IC50 was “Not Active”. For `CCCNC(=O)NS(=O)(=O)c1ccc(Cl)cc1` [CHLORPROPAMIDE], the IC50 was “Not Active”. For `NS(=O)(=O)c1cc(C2(O)NC(=O)c3ccccc32)ccc1Cl` (stereo not given) [CHLORTHALIDONE], the IC50 was “Not Active”. For `O=C(O)CC(O)(CC(=O)O)C(=O)O` [CITRIC ACID], the IC50 was “Not Active”. With `CC(C)NCC(O)c1ccccc1Cl` (stereo not given) [CLORPRENALINE] the IC50 was “Not Active”. In the case of `CN1C[C@@H]2C[C@H]1CN2c1cc2c(cc1F)c(=O)c(C(=O)O)cn2C1CC1` [DANOFLOXACIN], the IC50 is reported as “Not Active”.

Target: Melanocortin receptor 5 (Homo sapiens, UniProt P33032); also: in other assays of this panel Not Active means under 50% inhibition at 10 µM
Sequence (P33032 whole entry): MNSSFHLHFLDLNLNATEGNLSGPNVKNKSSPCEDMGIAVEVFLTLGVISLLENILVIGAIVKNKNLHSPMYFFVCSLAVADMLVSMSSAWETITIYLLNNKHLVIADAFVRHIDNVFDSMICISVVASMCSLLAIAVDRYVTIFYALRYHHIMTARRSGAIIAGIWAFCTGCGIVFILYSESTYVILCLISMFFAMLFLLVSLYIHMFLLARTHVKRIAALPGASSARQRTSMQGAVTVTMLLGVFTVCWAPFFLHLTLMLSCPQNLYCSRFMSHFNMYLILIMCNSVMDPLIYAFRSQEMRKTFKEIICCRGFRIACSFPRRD
Format: cell membranes, HEK293, Membrane
Details: hek293
With `Cc1cc(O)cc(C)c1Cl` [CHLOROXYLENOL] the IC50 was “Not Active”. In the case of `CCCNC(=O)NS(=O)(=O)c1ccc(Cl)cc1` [CHLORPROPAMIDE], the IC50 is reported as “Not Active”. For `NS(=O)(=O)c1cc(C2(O)NC(=O)c3ccccc32)ccc1Cl` (stereo not given) [CHLORTHALIDONE], the IC50 was “Not Active”. With `O=C(O)CC(O)(CC(=O)O)C(=O)O` [CITRIC ACID] the IC50 was “Not Active”. With `CC(C)NCC(O)c1ccccc1Cl` (stereo not given) [CLORPRENALINE] the IC50 was “Not Active”. With `CN1C[C@@H]2C[C@H]1CN2c1cc2c(cc1F)c(=O)c(C(=O)O)cn2C1CC1` [DANOFLOXACIN] the IC50 was “Not Active”.

Target: Mitogen-activated protein kinase 1 (Homo sapiens, UniProt P28482)
Sequence (P28482 whole entry): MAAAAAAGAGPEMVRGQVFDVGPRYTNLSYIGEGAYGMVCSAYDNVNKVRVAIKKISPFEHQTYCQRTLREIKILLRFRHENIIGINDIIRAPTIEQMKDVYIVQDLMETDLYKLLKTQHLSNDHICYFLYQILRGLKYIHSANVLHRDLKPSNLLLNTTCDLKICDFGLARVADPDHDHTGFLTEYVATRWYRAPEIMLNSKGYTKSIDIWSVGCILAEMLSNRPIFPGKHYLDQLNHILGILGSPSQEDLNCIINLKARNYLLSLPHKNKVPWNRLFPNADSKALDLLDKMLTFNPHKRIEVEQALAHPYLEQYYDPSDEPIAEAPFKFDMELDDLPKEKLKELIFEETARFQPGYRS
Experiment: DRUGMATRIX: Protein Serine/Threonine Kinase, ERK2 enzyme inhibition (substrate: Myelin Basic Protein)
Parameters: species or system Escherichia coli
Details: Not Active = under 50% inhibition at 10 µM
In the case of `Cc1cc(O)cc(C)c1Cl` [CHLOROXYLENOL], the IC50 is reported as “Not Active”. For `CCCNC(=O)NS(=O)(=O)c1ccc(Cl)cc1` [CHLORPROPAMIDE], the IC50 was “Not Active”. In the case of `NS(=O)(=O)c1cc(C2(O)NC(=O)c3ccccc32)ccc1Cl` (stereo not given) [CHLORTHALIDONE], the IC50 is reported as “Not Active”. With `O=C(O)CC(O)(CC(=O)O)C(=O)O` [CITRIC ACID] the IC50 was “Not Active”. With `CC(C)NCC(O)c1ccccc1Cl` (stereo not given) [CLORPRENALINE] the IC50 was “Not Active”. For `CN1C[C@@H]2C[C@H]1CN2c1cc2c(cc1F)c(=O)c(C(=O)O)cn2C1CC1` [DANOFLOXACIN], the IC50 was “Not Active”.

Target: T2, 5-hydroxytryptamine receptor 1A (Rattus norvegicus, UniProt P19327); also: in other assays of this panel Not Active means under 50% inhibition at 10 µM
T2 sequence (P19327 whole entry): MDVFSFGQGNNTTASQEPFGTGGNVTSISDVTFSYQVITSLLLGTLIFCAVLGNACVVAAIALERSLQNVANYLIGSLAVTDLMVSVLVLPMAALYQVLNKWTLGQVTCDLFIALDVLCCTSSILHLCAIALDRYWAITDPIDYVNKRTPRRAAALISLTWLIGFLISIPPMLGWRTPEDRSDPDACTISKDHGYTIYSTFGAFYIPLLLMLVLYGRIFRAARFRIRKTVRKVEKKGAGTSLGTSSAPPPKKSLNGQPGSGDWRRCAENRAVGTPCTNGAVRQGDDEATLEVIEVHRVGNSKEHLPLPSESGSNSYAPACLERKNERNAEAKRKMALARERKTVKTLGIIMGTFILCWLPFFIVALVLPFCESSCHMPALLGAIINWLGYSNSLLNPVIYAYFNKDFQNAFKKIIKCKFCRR
Format: cell membranes, CHO-K1, Membrane
Details: cho-k1
For `Cc1cc(O)cc(C)c1Cl` [CHLOROXYLENOL], the IC50 was “Not Active”. For `CCCNC(=O)NS(=O)(=O)c1ccc(Cl)cc1` [CHLORPROPAMIDE], the IC50 was “Not Active”. With `NS(=O)(=O)c1cc(C2(O)NC(=O)c3ccccc32)ccc1Cl` (stereo not given) [CHLORTHALIDONE] the IC50 was “Not Active”. In the case of `O=C(O)CC(O)(CC(=O)O)C(=O)O` [CITRIC ACID], the IC50 is reported as “Not Active”. In the case of `CC(C)NCC(O)c1ccccc1Cl` (stereo not given) [CLORPRENALINE], the IC50 is reported as “Not Active”. In the case of `CN1C[C@@H]2C[C@H]1CN2c1cc2c(cc1F)c(=O)c(C(=O)O)cn2C1CC1` [DANOFLOXACIN], the IC50 is reported as “Not Active”.

Target: Cytochrome P450 2D6 (Homo sapiens, UniProt P10635); also: in other assays of this panel Not Active means under 50% inhibition at 10 µM
Sequence (P10635 whole entry): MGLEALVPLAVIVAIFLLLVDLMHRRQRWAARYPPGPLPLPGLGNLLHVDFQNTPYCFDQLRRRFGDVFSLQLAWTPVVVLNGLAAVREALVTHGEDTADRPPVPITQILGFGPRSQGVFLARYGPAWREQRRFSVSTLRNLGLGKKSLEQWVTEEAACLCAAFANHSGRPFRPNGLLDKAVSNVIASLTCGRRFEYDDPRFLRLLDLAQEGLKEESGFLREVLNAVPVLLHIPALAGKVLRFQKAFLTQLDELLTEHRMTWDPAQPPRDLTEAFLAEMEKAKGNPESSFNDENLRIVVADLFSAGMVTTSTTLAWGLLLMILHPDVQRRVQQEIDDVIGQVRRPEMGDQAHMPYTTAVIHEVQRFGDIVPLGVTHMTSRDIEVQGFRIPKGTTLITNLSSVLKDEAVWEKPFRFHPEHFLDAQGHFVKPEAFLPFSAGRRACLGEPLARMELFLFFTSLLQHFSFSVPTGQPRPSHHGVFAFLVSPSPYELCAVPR
Details: bti-tn-5b1-4
In the case of `Cc1cc(O)cc(C)c1Cl` [CHLOROXYLENOL], the IC50 is reported as “Not Active” and the Ki is reported as “Not Active”. In the case of `CCCNC(=O)NS(=O)(=O)c1ccc(Cl)cc1` [CHLORPROPAMIDE], the IC50 is reported as “Not Active” and the Ki is reported as “Not Active”. In the case of `NS(=O)(=O)c1cc(C2(O)NC(=O)c3ccccc32)ccc1Cl` (stereo not given) [CHLORTHALIDONE], the IC50 is reported as “Not Active” and the Ki is reported as “Not Active”. In the case of `O=C(O)CC(O)(CC(=O)O)C(=O)O` [CITRIC ACID], the IC50 is reported as “Not Active” and the Ki is reported as “Not Active”. In the case of `CC(C)NCC(O)c1ccccc1Cl` (stereo not given) [CLORPRENALINE], the IC50 is reported as “Not Active” and the Ki is reported as “Not Active”. For `CN1C[C@@H]2C[C@H]1CN2c1cc2c(cc1F)c(=O)c(C(=O)O)cn2C1CC1` [DANOFLOXACIN], the IC50 was “Not Active” and the Ki was “Not Active”.
